The values that follow come from patent EP4596537A1, “NOVEL FLUORENE DERIVATIVE COMPOUND AND USE THEREOF” (JD Bioscience Inc., priority 2022, dated 2024).

Molecules are shown by their SMILES. A value given as a limit tells only on which side of the number the result lay.

One data set concerns KKAy diabetes mice. Nature of the data set: Intraperitoneal glucose tolerance test (IPGTT) in diabetes animal model. Format: in vivo. The following applies: 0.5 mg/kg once a day by oral gavage, 10 weeks; 1 g/kg glucose i.p.; vs vehicle group. How it is done: A vehicle (10% DMSO + 0.5% methylcellulose) and the compound of Example 1 (Compound 1) were administered to 6-week-old male KKAy diabetes mice (n = 6 per group) at a dose of 0.5 mg/kg once a day by oral gavage. At 10 weeks of administration, an intraperitoneal glucose tolerance test (IPGTT) was performed by intraperitoneally administering 1 g/kg of glucose, and the results are shown in FIG. 1.

The next data set has as its system H9C2 cells. Nature of the data set: Myocardial infarction cell model (hypoxia-reoxygenation). Format: cell-based, rat. The following applies: 1 µM. The method, then:
H9C2 cells, which are a rat […] cell line, were seeded at a density of 3 × 10^3 cells/well in a 96-well plate and cultured for 24 hours. The next day, the medium was replaced with FBS-free DMEM and cultured for an additional 24 hours. After replacing the medium with FBS-free DMEM again, 1 µM of Compound 1 was treated and cultured in a hypoxia chamber (1% oxygen, 5% CO2) for 2 hours (hypoxia). After replacing the medium with DMEM with 10% FBS, 1 µM of Compound 1 was treated and cultured in a CO2 incubator for 1 hour (reoxygenation). Apoptosis, mitochondrial superoxide levels, and intracellular calcium levels were measured, and the results are shown in FIGS. 4 and 5, respectively.

In data set [1] the test system is bone marrow-derived dendritic cells (BMDCs). The experiment in a line: Inflammasome formation (IL-1β ELISA) in LPS/ATP-treated dendritic cells. Format: cell-based, C57BL6 mice. The following applies: for IL-1β: LPS 500 ng/mL + 5 mM ATP, supernatant; for inhibited IL-1β expression: compared to vehicle control group. How it is done: Furthermore, to verify the anti-inflammatory effect at a cellular level, bone marrow cells of C57BL6 mice were treated with 20 ng/mL of GM-CSF and IL-4, and 6 days later, bone marrow-derived dendritic cells (BMDCs) were collected. The BMDCs were prepared at 1×10^6 cells/mL and stabilized for one day, and then subsequent experiments were conducted. The above dendritic cells were treated with 500 ng/mL of LPS for 3 hours to prime pro-IL1 β, and then treated with Compound 1 (0 µM, 0.01 µM, 0.1 µM, 1 µM, and 10 µM) for 15 minutes. Next, 5 mM of ATP was treated, which induces inflammasome formation by converting pro-IL1β to IL-1β through pro-IL1β cleavage, and 30 minutes later, the concentration of IL-1β in the supernatant was measured by ELISA, and the results are shown in FIG. 10 and Table 3.

A further data set relates to Mfn2^-/^- MEF cells. Nature of the data set: Mitochondrial oxygen consumption rate (Seahorse), Charcot-Marie-Tooth disease model. Format: cell-based, mouse. To be noted: 1 µM, 24 hours. The method, then: To verify the functional loss due to mutation of MFN2 present in the outer mitochondrial membrane, which is the main cause of Charcot-Marie-Tooth disease, the mitochondrial oxygen consumption rate (OCR) was measured. In detail, Mfn2^+/^+ MEF cells (normal cells), which are mouse embryonic fibroblasts expressing Mfn2, and Mfn2^-/^- MEF cells not expressing Mfn2 were cultured at a density of 1 × 10^4 for 24 hours in a Seahorse XF24 culture dish using a DMEM medium supplemented with 10% FBS and penicillin/streptomycin. The cells were treated with DMSO as a vehicle and Compound 1 (1 µM) and cultured for another 24 hours. The mitochondrial oxygen consumption rate was measured using a […] (Agilent Technologies), and the results are shown in FIG. 13.

The subject of another data set is NCI-H295R cells. Nature of the data set: Cortisol production (ELISA), Cushing's syndrome cell model. The following applies: 0.1 µM, 0.5 µM, and 1 µM; 0.5 mM 8-Br-cAMP; concentration-dependent. Format: cell-based, human. How it is done: NCI-H295R cells (ATCC #CRL-2128), which are a human adrenocortical carcinoma cell line, were seeded at a density of 2.5 × 10^5 cells/well in a 24-well plate. The cells were cultured for 48 hours, and then they were pretreated with Compound 1 (0.1 µM, 0.5 µM, and 1 µM) for 12 hours. Furthermore, to increase cortisol synthesis, the cells were treated with 8-bromoadenosine […] monophosphate (8-Br-cAMP) at a concentration of 0.5 mM, and then re-treated with Compound 1, and allowed to react for 24 hours. After the reaction, the cell culture medium was collected, and the amount of cortisol produced in the cells was measured using an ELISA kit, and the results are shown in FIG. 14.
(In general: In an ELISA, binding on a coated surface is turned into a signal by an enzyme label.)

A further data set has as its system normal cells. Nature of the data set: Growth inhibition (Cell Counting Kit-8), normal cells. Format: cell-based. To be noted: 24 hours, 10% FBS; concentration of up to less than 40 µM. The method, then: In order to verify the growth inhibitory effect of Compound 1 on various normal and cancer cell lines, 25 types of cell lines listed in Table 7 below were tested. In detail, each cell was seeded at a density of 2 × 10^4 cells/well in a 96-well plate and cultured for 24 hours, and then the medium was replaced with a medium comprising 0.5% (for cancer cells) or 10% (for normal cells) FBS, and Compound 1 was treated at various concentrations. 24 hours later, 10 µL of Cell Counting Kit-8 (Dojindo Molecular Technologies) was added, and 1 hour later, absorbance at 480 nm was measured using a microplate reader (TECAN SPARK), and the results are shown in FIGS. 15 to 21.
On the technique in general: Tetrazolium assays rely on reduction of a dye to a coloured formazan, in cell work by metabolically active cells.

The test system of data set [2] is CT26 colorectal cancer cell line. The experiment in a line: Anticancer efficacy in CT26 colorectal cancer tumor model. Format: in vivo, nude mice. To be noted: 1.0 mg/kg. The method, then: A colorectal cancer model was established by subcutaneously transplanting CT26 colorectal cancer cell line into nude mice. The colorectal cancer model was divided into two groups: vehicle administration group and Compound 1 administration group. […] Similar to Experimental Example 13, tumor size was calculated before drug administration and on days 3, 7, 10, 14, 18, 22, and 24 after drug administration, and body weight was measured before drug administration and on days 7, 14 and 22 after drug administration, which are shown in FIG. 22.
Additionally, tumors were extracted from the colorectal cancer model, fixed with 4% PFA solution, and subjected to TUNEL assay to determine the degree of apoptosis induction, and the results are shown in FIG. 22. As shown in the middle of FIG. 22, 28% apoptosis was induced in the vehicle administration group, and 72% apoptosis was induced in the 1.0 mg/kg compound 1 administration group, and statistical significance between these values was also verified (*p<0.01 versus the vehicle administration group).

As for `CC(C(=O)NNc1ccc(F)cc1)n1cc(-c2cc(F)cc3c2-c2ccccc2C3(O)C(F)(F)F)cn1` (stereo not shown) [Example 1, 2-(4-(2-fluoro-9-hydroxy-9-(trifluoromethyl)-9H-fluoren-4-yl)-1H-pyrazol-1-yl)-N'-(4-fluorophenyl)propanehydrazide], in the data set on KKAy diabetes mice, the “blood glucose increase (IPGTT)” value was “significantly suppressed”. Further, in the data set on H9C2 cells (hypoxia-reoxygenation), the “intracellular calcium (Rhod2 staining)” value was “remarkably reduced”. The “mitochondrial superoxide (MitoSOX staining)” value with H9C2 cells (hypoxia-reoxygenation) is reported as “remarkably reduced”. The “apoptosis (TUNEL staining)” value in the data set with H9C2 cells (hypoxia-reoxygenation (H/R)) is recorded as “markedly reduced”. The “IL-1β” value worked out at 1131.823 pg/mL in data set [1] (0.01 µM), 1009.825 pg/mL in data set [1] (0.1 µM), 907.2636 pg/mL in data set [1] (1 µM) and 647.6982 pg/mL in data set [1] (10 µM). For the same compound, the “inhibited IL-1β expression” value in data set [1] (0.1 µM) was “about 83.802%”; in data set [1] (10 µM), “about 53.7504%”. Moreover, in the data set on Mfn2^-/^- MEF cells, the “mitochondrial oxygen consumption rate (OCR)” value is given as “markedly restored to a level comparable to that of normal cells”. The cortisol production result in the data set on NCI-H295R cells is recorded as “significantly inhibited”. The viability (in general, the share of living cells, or the viability signal relative to a control) in the data set on normal cells is ≥ 70%. For the same compound, in data set [2] (day 24), the “decrease in tumor growth (tumor volume) compared to vehicle” value is 55%. The “change in the body weight” value in data set [2] (days 7, 14, 22) is “Neither the vehicle administration group nor the compound 1 administration group showed any change in the body weight”. In addition, the “apoptosis induced in tumor (TUNEL assay)” value in data set [2] (vehicle group 28%) came out at 72%.
